From ChEMBL document CHEMBL1201862, “PubChem BioAssay data set” (2004)
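Five concentrations, 48 hours, 96-well plates. GI50 = concentration required for 50% inhibition of growth.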 Activity calls are given as the source filed them. Rule as the data show it: active = GI50 up to about 1.1 µM and inactive = higher.

Columns and labels:
Assay in all cases: NCI-60 cell line screen, 48 h
KM12 = tested on: KM12
PC-3 = tested on: PC-3
RPMI-8226 = tested on: RPMI-8226
RXF 393 = tested on: RXF 393
NCI/ADR-RES = tested on: NCI/ADR-RES
Hs-578T = tested on: Hs-578T
MDA-MB-435 = tested on: MDA-MB-435
EKVX = tested on: EKVX
UACC-257 = tested on: UACC-257
786-0 = tested on: 786-0
SNB-19 = tested on: SNB-19
T47D = tested on: T47D
NCI-H226 = tested on: NCI-H226
A498 = tested on: A498
UACC-62 = tested on: UACC-62
UO-31 = tested on: UO-31
HCC 2998 = tested on: HCC 2998
MCF7 = tested on: MCF7
DMS-114 = tested on: DMS-114
KM-20L2 = tested on: KM-20L2

| Structure (SMILES) | GI50 (KM12) | GI50 (PC-3) | GI50 (RPMI-8226) | GI50 (RXF 393) | GI50 (NCI/ADR-RES) | GI50 (Hs-578T) | GI50 (MDA-MB-435) | GI50 (EKVX) | GI50 (UACC-257) | GI50 (786-0) | GI50 (SNB-19) | GI50 (T47D) | GI50 (NCI-H226) | GI50 (A498) | GI50 (UACC-62) | GI50 (UO-31) | GI50 (HCC 2998) | GI50 (MCF7) | GI50 (DMS-114) | GI50 (KM-20L2) |
| --- | --- | --- | --- | --- | --- | --- | --- | --- | --- | --- | --- | --- | --- | --- | --- | --- | --- | --- | --- | --- |
| O=C(O)/C(=C\c1ccncc1)c1cccc2ccccc12 | > 100 µM (inactive) | > 100 µM (inactive) | > 100 µM (inactive) | > 100 µM (inactive) | > 100 µM (inactive) | > 100 µM (inactive) | > 100 µM (inactive) | > 100 µM (inactive) | 0.145 µM (active) | > 100 µM (inactive) | > 100 µM (inactive) | > 100 µM (inactive) |  |  |  |  |  |  |  |  |
| Cc1cc2oc3c(ccc(=O)n3C)c(=O)c2c(C)c1Cl | 91.4 µM (inactive) | 37.4 µM (inactive) |  | 31.2 µM (inactive) | 72.9 µM (inactive) | 32 µM (inactive) | 28.1 µM (inactive) | 52 µM (inactive) |  |  | 71.1 µM (inactive) | 50.1 µM (inactive) | 35.6 µM (inactive) | 46.8 µM (inactive) | 40.1 µM (inactive) | 73.5 µM (inactive) | > 100 µM (inactive) |  |  |  |
| Cc1nc2[nH]ncn2c(=O)c1CCO |  | > 10 µM (inactive) | > 10 µM (inactive) | > 10 µM (inactive) | > 10 µM (inactive) | > 10 µM (inactive) | > 10 µM (inactive) | > 10 µM (inactive) |  |  | > 10 µM (inactive) | > 10 µM (inactive) | > 10 µM (inactive) | > 10 µM (inactive) | > 10 µM (inactive) | > 10 µM (inactive) | > 10 µM (inactive) | > 10 µM (inactive) |  |  |
| O=C(Nc1cccc(C(=O)NCCCO)c1)/C(=C/c1ccccc1)NC(=O)c1ccccc1 | > 100 µM (inactive) | > 100 µM (inactive) | > 100 µM (inactive) | > 100 µM (inactive) | > 100 µM (inactive) | > 100 µM (inactive) | > 100 µM (inactive) | > 100 µM (inactive) | > 100 µM (inactive) | > 100 µM (inactive) | > 100 µM (inactive) | > 100 µM (inactive) | > 100 µM (inactive) | > 100 µM (inactive) | > 100 µM (inactive) | > 100 µM (inactive) | > 100 µM (inactive) | > 100 µM (inactive) |  |  |
| CN(NC(=O)c1cccs1)C1=NCCCN1 | > 100 µM (inactive) | > 100 µM (inactive) | > 100 µM (inactive) | > 100 µM (inactive) | > 100 µM (inactive) | > 100 µM (inactive) | > 100 µM (inactive) | 85.9 µM (inactive) | > 100 µM (inactive) | > 100 µM (inactive) | > 100 µM (inactive) | > 100 µM (inactive) | > 100 µM (inactive) | > 100 µM (inactive) | > 100 µM (inactive) | > 100 µM (inactive) | > 100 µM (inactive) | > 100 µM (inactive) |  |  |
| C/C(=N/NS(=O)(=O)c1ccc([N+](=O)[O-])cc1)c1cccc[n+]1[O-] | > 100 µM (inactive) |  | > 100 µM (inactive) |  |  |  |  | > 100 µM (inactive) | > 100 µM (inactive) | > 100 µM (inactive) | > 100 µM (inactive) |  |  | > 100 µM (inactive) | > 100 µM (inactive) | > 100 µM (inactive) | > 100 µM (inactive) |  | > 100 µM (inactive) | > 100 µM (inactive) |
| CCOC(=O)/C(=C/c1cn(C(C)=O)c2ccccc12)P(=O)(OC)OC |  | 25.9 µM (inactive) | 19.9 µM (inactive) |  | 29.2 µM (inactive) | 31 µM (inactive) | 36.4 µM (inactive) |  | 19.1 µM (inactive) |  |  | 13.7 µM (inactive) |  | 15.3 µM (inactive) |  |  | > 10 µM (inactive) | < 0.01 µM (active) |  |  |
| CCCCCCCCCCCC1=NCCN1 | 63.8 µM (inactive) | 19.4 µM (inactive) |  | > 100 µM (inactive) | > 100 µM (inactive) | 83.9 µM (inactive) | > 100 µM (inactive) |  | > 100 µM (inactive) |  | > 100 µM (inactive) | 73.3 µM (inactive) | > 100 µM (inactive) | 0.557 µM (active) |  | 32.1 µM (inactive) | 19.5 µM (inactive) | 38.9 µM (inactive) |  |  |
| CC(=O)/N=C1/N(/C=C2\C(=O)Oc3ccccc3C2=O)C(=O)/C(=C/c2ccc(NC(C)=O)cc2)N1C | > 100 µM (inactive) | > 100 µM (inactive) | > 100 µM (inactive) | > 100 µM (inactive) | > 100 µM (inactive) | 44.4 µM (inactive) | > 100 µM (inactive) | > 100 µM (inactive) | > 100 µM (inactive) | > 100 µM (inactive) |  | > 100 µM (inactive) | > 100 µM (inactive) | > 100 µM (inactive) | > 100 µM (inactive) |  | > 100 µM (inactive) | > 100 µM (inactive) |  |  |
| CC(C)(Br)C1(O)CCCN1C(=O)c1ccccc1 (centres undefined) | > 100 µM (inactive) |  |  | > 100 µM (inactive) |  |  |  | > 100 µM (inactive) | > 100 µM (inactive) |  | > 100 µM (inactive) |  |  | > 100 µM (inactive) | > 100 µM (inactive) | > 100 µM (inactive) | > 100 µM (inactive) |  |  | > 100 µM (inactive) |
